From patent publication US12637414B2, “Arylamides and methods of use thereof” (Genzyme Corporation, priority 2019, dated 2026)
pEC50: −log10 of the molar value.

Target: T1, human Cystic Fibrosis Transmembrane Conductance Regulator (CFTR) harboring the ΔF508 mutation (Homo sapiens, UniProt P13569, DEL508-508)
T1 construct: expressed in transfected cells; host or cells: H441 carcinoma line (G418 selection)
Assay: H441 cell Emax and EC50: HRP-tagged ΔF508-CFTR cell surface luminescence assay
Type: cell-based
Conditions: H441 cells expressing ΔF508-CFTR-HRP, 27° C., two nights; for pEC50: 15-point dose-response, top 24.5 μM; for Emax: NCI-H441, % of maximum VX809 signal
Text: Two cell lines were used, the H441 carcinoma line and the CFHBE41o-(41o-) human bronchial epithelial line. Both cell lines expressed human Cystic Fibrosis Transmembrane Conductance Regulator (CFTR) harboring the ΔF508 mutation and with an in-frame fusion in CFTR extracellular loop 4 of Horse Radish Peroxidase (HRP) under control of the CMV promoter. In the presence of the HRP tag, ΔF508-CFTR transported to the cell surface was detectable upon addition of an HRP substrate (Luminata Forte). Both cell types were cultivated at 37° C. with CO2.
For both cell types, the medium was changed every other day unless the culture was at low % confluence. Cells were used for the assays at ˜75% confluence.
To a polypropylene (PP) 384-well plate, 15 μls DMSO was added to all wells in columns 1-22 and 24 (low Control). 15 μls of 260 μM VX809 (Lumacaftor), Selleckchem S1565, was added to column 23 wells (high Control). 15 μls of 10 mM test compound or VX809 (control) were added to wells of row A. Serial dilutions of Row A compound were performed 2×15 μls in rows A through O (15-point).
A PP, 384-well plate containing the appropriate cell culture medium was prepared for each assay plate with 100 μls per well. For the doxycycline-induced 41o-cells, doxycycline for both the assay plate and the medium dilution plate was added at 0.0005 mg/ml to the medium.
Both cell lines were plated for the assay at 30 uls per 384-well at 3.4×10^e5 cells per ml (˜10K cells/well). H441 cells were plated on opaque, white, Corning plate 3704. 41o-cells were plated on collagen-coated opaque, white, Corning plate 356665. For 41o-cells, doxycycline was added to the medium.
Using FX (Beckman) protocol, 10 uls diluted compound or medium was added per well to the Assay Plate as: 2 μls DMSO Dilution plate well is diluted in 100 uls of the Medium Dilution Plate well, mixed, and 10 uls is transferred to the Assay Plate.
The final assay dilution series is 24.5, 12.3, 6.1, 3.1, 1.5, 0.8, 0.4, 0.2, 0.1, 0.05, 0.02, 0.01, 0.006, 0.003, 0.001 and 0 μM. The 41o-assay plates were incubated at 37° C. w/CO2, the H441 assay plates were incubated at 27° C. w/CO2, each overnight for two nights.
After being brought to room temperature, the assay plate liquid was removed. 30 μls of Luminata Forte (Millipore ELLUF0100) was added per well and incubated at room temperature for 10 min. The plates were then read on a Topcount, protocol LumiMatti (CPS, luminescence). The data was analyzed for % of maximum, maximum VX809 signal, and EC50 using Pearl and SPEED tools.

T1 sequence (P13569 with tags, fused parts or gaps DEL508-508): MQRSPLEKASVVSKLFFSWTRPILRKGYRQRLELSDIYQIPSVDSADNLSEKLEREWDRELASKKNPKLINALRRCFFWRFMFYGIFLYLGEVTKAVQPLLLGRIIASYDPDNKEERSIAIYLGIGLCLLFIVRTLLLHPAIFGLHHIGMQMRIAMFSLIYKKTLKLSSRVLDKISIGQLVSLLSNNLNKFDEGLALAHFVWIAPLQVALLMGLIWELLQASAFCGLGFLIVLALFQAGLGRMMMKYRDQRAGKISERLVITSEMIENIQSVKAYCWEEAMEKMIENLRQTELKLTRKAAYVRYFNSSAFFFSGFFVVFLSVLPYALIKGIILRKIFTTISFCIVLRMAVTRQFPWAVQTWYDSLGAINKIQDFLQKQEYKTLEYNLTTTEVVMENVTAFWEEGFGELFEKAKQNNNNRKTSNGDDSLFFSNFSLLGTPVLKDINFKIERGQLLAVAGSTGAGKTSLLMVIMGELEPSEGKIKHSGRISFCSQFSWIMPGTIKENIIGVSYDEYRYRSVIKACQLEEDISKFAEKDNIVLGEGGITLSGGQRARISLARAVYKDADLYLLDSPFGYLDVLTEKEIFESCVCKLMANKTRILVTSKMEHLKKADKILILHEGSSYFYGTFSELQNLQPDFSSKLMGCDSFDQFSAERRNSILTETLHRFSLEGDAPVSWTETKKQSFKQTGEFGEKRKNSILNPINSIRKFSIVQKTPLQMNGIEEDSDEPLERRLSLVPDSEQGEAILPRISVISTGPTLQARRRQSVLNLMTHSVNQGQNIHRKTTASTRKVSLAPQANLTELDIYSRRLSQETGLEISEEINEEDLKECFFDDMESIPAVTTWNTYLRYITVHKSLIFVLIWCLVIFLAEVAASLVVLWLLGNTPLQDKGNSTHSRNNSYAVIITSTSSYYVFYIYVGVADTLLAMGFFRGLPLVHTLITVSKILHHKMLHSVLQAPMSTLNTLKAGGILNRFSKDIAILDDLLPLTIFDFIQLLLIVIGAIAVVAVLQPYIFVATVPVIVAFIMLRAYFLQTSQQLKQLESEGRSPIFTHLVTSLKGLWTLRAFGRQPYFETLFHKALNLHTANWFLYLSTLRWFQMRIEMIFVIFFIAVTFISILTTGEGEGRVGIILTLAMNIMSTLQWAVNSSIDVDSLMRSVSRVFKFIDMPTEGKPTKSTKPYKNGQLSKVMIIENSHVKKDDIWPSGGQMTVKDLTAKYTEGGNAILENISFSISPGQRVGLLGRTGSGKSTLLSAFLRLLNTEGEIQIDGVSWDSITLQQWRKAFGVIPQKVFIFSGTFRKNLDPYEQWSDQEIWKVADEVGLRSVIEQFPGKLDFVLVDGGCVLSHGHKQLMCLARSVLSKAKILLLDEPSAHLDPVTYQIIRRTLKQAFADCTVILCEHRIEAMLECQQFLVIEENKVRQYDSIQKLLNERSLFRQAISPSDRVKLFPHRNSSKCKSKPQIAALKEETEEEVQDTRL

SMILES	pEC50	Emax
COc1ccc2c(OCc3ccc(SC(F)(F)F)cc3)c(C(=O)N[C@H](C(=O)O)C34CC5CC(CC(C5)C3)C4)ccc2c1 [compound 83]	6.02	16.4%
O=C(N[C@H](C(=O)O)C12CC3CC(CC(C3)C1)C2)c1cc(F)c2ccccc2c1OCc1ccc(C(F)(F)F)cc1 [compound 3]	6.39	156%
CCOC(=O)[C@H](C)OC12CC3CC(C1)CC([C@H](NC(=O)c1ccc4cc(F)ccc4c1OCc1ccc(C(F)(F)F)cc1)C(=O)O)(C3)C2 [compound 87]	6.54	96.2%
O=C(N[C@H](C(=O)O)C12CC3CC(CC(O)(C3)C1)C2)c1sc2ccccc2c1OCc1ccc(OC(F)(F)F)cc1 [compound 13]	5.46	87.3%
O=C(N[C@H](C(=O)O)C12CC3CC(CC(C3)C1)C2)c1ccn2cccc2c1OCc1ccc(OC(F)(F)F)cc1 [compound 118, (2S)-2-(1-adamantyl)-2-[[8-[[4-(trifluoromethoxy)phenyl]methoxy]indolizine-7-carbonyl]amino]acetic acid; 2,2,2-trifluoroacetic acid]	6.55	141%
NC12CC3CC(C1)CC([C@H](NC(=O)c1ccc4ccccc4c1OCc1ccc(C(F)(F)F)cc1)C(=O)O)(C3)C2 [compound 92]		-1.3%
O=C(O)[C@@H](n1c(=O)c2ccc3ccccc3c2n(Cc2ccc(C(F)(F)F)cc2)c1=O)C12CC3CC(CC(C3)C1)C2 [compound 137, (2S)-2-(1-adamantyl)-2-[2,4-dioxo-1-[[4-(trifluoromethyl)phenyl]methyl]benzo[h]quinazolin-3-yl]acetic acid]	5.80	5.3%
O=C(N[C@H](C(=O)O)C12CC3CC(CC(OCC(F)(F)F)(C3)C1)C2)c1ccc2cc(F)ccc2c1OCc1ccc(C(F)(F)F)cc1 [compound 26]	6.74	113%
O=C(N[C@H](C(=O)O)C12CC3CC(Cl)(CC(Cl)(C3)C1)C2)c1ccc2ccccc2c1NCc1ccc(SC(F)(F)F)cc1 [compound 130, (2S)-2-(3,5-dichloro-1-adamantyl)-2-[[1-[[4-(trifluoromethylsulfanyl)phenyl]methylamino]naphthalene-2-carbonyl]amino]acetic acid]	6.32	60.6%
CS(=O)(=O)CCOC12CC3CC(C1)CC([C@H](NC(=O)c1ccc4cc(F)ccc4c1OCc1ccc(C(F)(F)F)cc1)C(=O)O)(C3)C2 [compound 39]	5.67	102%
O=C(N[C@H](C(=O)O)C12CC3CC(CC(C3)C1)C2)c1ccc2ccccc2c1OCc1ccc(SC(F)(F)F)cc1 [compound 2]	6.41	154%
CC(C)C#CCOc1c(C(=O)N[C@H](C(=O)O)C23CC4CC(CC(C4)C2)C3)ccc2cc(F)ccc12 [compound 72]	4.95	92.7%
CC12CC3(C)CC(C)(C1)CC(C(NC(=O)c1ccc4ccccc4c1OCc1ccc(OC(F)(F)F)cc1)C(=O)O)(C2)C3 (stereo not drawn) [compound 82]	6.70	304%
O=C(N[C@H](C(=O)O)C12CC3CC(CC(C3)C1)C2)c1sc2ccccc2c1OCc1ccc(C(F)(F)F)cc1 [compound 15]	6.48	158%
O=C(N[C@H](C(=O)O)C12CC3CC(CC(C3)C1)C2)c1ccc2cc(F)ccc2c1OCc1ccc(Cl)c(Cl)c1 [compound 55]	6.71	150%
O=C(O)[C@@H](N1CN(Cc2ccc(OC(F)(F)F)cc2)c2c(ccc3ccccc23)C1=O)C12CC3CC(CC(O)(C3)C1)C2 [compound 119]	6.21	71%
CC(C)Oc1ccc2c(OCc3ccc(C(F)(F)F)cc3)c(C(=O)N[C@H](C(=O)O)C34CC5CC(CC(C5)C3)C4)ccc2c1 [compound 103, (2S)-2-(1-adamantyl)-2-[[6-isopropoxy-1-[[4-(trifluoromethyl)phenyl]methoxy]naphthalene-2-carbonyl]amino]acetic acid]	6.40	30.2%

SMILES	pEC50	Emax
O=C(N[C@H](C(=O)O)C12CC3CC(CC(C3)C1)C2)c1ccc2sccc2c1OCc1nc2ccccc2s1 [compound 113, (2S)-2-(1-adamantyl)-2-[[4-(1,3-benzothiazol-2-ylmethoxy)benzothiophene-5-carbonyl]amino]acetic acid]	6.22	184%
CC(C)OC(=O)[C@@H](NC(=O)c1ccc2cccnc2c1OCc1ccc(C(F)(F)F)cc1)C12CC3CC(CC(C3)C1)C2 [compound 69]	≤ 4.61	28.9%
O=C(N[C@H](C(=O)O)C12CC3CC(CC(OCC(F)(F)F)(C3)C1)C2)c1ccc2ccccc2c1OCc1ccc(C(F)(F)F)cc1 [compound 6]	6.90	233%
O=C(O)[C@@H](N1CN(Cc2ccc(SC(F)(F)F)cc2)c2c(ccc3ccccc23)C1=O)C12CC3CC(CC(C3)C1)C2 [compound 126, (2S)-2-(1-adamantyl)-2-[4-oxo-1-[[4-(trifluoromethylsulfanyl)phenyl]methyl]-2H-benzo[h]quinazolin-3-yl]acetic acid]	6.32	42.2%
O=C(N[C@H](C(=O)O)C12CC3CC(CC(O)(C3)C1)C2)c1ccc2cc(F)ccc2c1OCc1ccc(S(F)(F)(F)(F)F)cc1 [compound 50]	5.66	76.4%
O=C(N[C@H](C(=O)O)C12CC3CC(CC(O)(C3)C1)C2)c1ccc2cc(F)ccc2c1OCc1ccc(C(F)(F)F)cc1 [compound 33]	6.12	100%
O=C(N[C@H](C(=O)O)C12CC3CC(CC(C3)C1)C2)c1ccc2occc2c1OCc1ccc(Cl)c(Cl)c1 [compound 120, (2S)-2-(1-adamantyl)-2-[[4-[(3,4-dichlorophenyl)methoxy]benzofuran-5-carbonyl]amino]acetic acid]	6.58	141%
O=C(N[C@H](C(=O)O)C12CC3CC(CC(C3)C1)C2)c1ccc2sccc2c1OCc1nc(C(F)(F)F)cs1 [compound 115, (2S)-2-(1-adamantyl)-2-[[4-[[4-(trifluoromethyl)thiazol-2-yl]methoxy]benzothiophene-5-carbonyl]amino]acetic acid]	5.55	106%
CC12CC3(C)CC(C)(C1)CC(C(NC(=O)c1ccc4ccccc4c1OCC1CCC(F)(F)CC1)C(=O)O)(C2)C3 (stereo not drawn) [compound 90]	6.00	165%
COc1ccc2c(OCc3ccc(C(F)(F)F)cc3)c(C(=O)N[C@H](C(=O)O)C34CC5CC(CC(C5)C3)C4)ccc2c1 [compound 38]	6.88	56.2%
O=C(N[C@H](C(=O)O)C12CC3CC(CC(C3)C1)C2)c1ccc2ccccc2c1OC[C@H]1CC[C@H](C(F)(F)F)CC1 [compound 48]	6.14	124%
O=C(N[C@H](C(=O)O)C12CC3CC(CC(O)(C3)C1)C2)c1ccc2cc(F)ccc2c1OCC1CCC(F)(F)CC1 [compound 21]	5.39	32.5%
O=C(N[C@H](C(=O)O)C12CC3CC(CC(O)(C3)C1)C2)c1ccc2ccccc2c1OCC1CCCCC1 [compound 30]	5.84	96.8%
O=C(N[C@H](C(=O)O)C12CC3CC(CC(O)(C3)C1)C2)c1ccc2ccccc2c1NCc1ccc(SC(F)(F)F)cc1 [compound 131, (2S)-2-(3-hydroxy-1-adamantyl)-2-[[1-[[4-(trifluoromethylsulfanyl)phenyl]methylamino]naphthalene-2-carbonyl]amino]acetic acid]	5.85	21.7%
O=C(N[C@H](C(=O)O)C12CC3CC(CC(C3)C1)C2)c1ccc2sccc2c1OCc1ccc(OC(F)F)cc1 [compound 107, (2S)-2-(1-adamantyl)-2-[[4-[[4-(difluoromethoxy)phenyl]methoxy]benzothiophene-5-carbonyl]amino]acetic acid]		-7.7%
O=C(N[C@H](C(=O)O)C12CC3CC(CC(OCCF)(C3)C1)C2)c1ccc2cc(F)ccc2c1OCc1ccc(C(F)(F)F)cc1 [compound 25]	6.64	106%
O=C(N[C@H](C(=O)O)C12CC3CC(CC(C3)C1)C2)c1sc2ccccc2c1OCC1CCCCC1 [compound 94]	6.04	257%
